Measurements from patent US10221163B2 (priority 2015, dated 2019).
pIC50: −log10 of the molar value. Where a name gives a salt, the structure may show the parent alone. Read-outs that look alike come from different tables or passages of the source.

What was measured:
[1] = test system: Pseudomonas aeruginosa MB9798 vs MB9799
From the text: The strain background was Pseudomonas aeruginosa PAO1.
The strain set was then used as a pair to determine the effect of metallo-β-lactamase inhibitors of Formula I on the MIC of imipenem and/or ceftazidime. A fixed concentration of antibiotic was included in standard microbroth MIC tests, usually at the CLSI (Clinical and Laboratory Standards Institute) breakpoint concentration. A fixed amount of a class A/C beta-lactamase inhibitor was also included to inhibit the resident Pseudomonas AmpC enzyme. A serial titration of the metallo-β-lactamase inhibitor was included and the concentration of metallo-β-lactamase inhibitor which restores susceptibility of the strain to the included antibiotic was recorded. That concentration of metallo-β-lactamase inhibitor was then compared between the two strains to determine the fold difference between the efflux+ (MB9798) and efflux− (MB9799) strains. This was taken as an indication of the extent to which the MBLi is subject to efflux.

IMP-1 = IMP-1 (Serratia marcescens, UniProt P52699); assay: biochemical; type: biochemical; conditions: CCF2-FA substrate, 2 pM enzyme, 2 hours at 25° C.
Outline: (§1)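 Class B activity is measured in the presence of compound by fluorescence with CCF2-FA after a 2-hour incubation at 25° C. IC50 is taken from a 4-parameter fit of semi-logarithmic dose-response data.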

NDM-1 = NDM-1 (Klebsiella pneumoniae, UniProt C7C422); assay: biochemical; type: biochemical; conditions: fluorescence assay, CCF2-FA substrate, 1 pM enzyme, 2 hours at 25° C., read-out: NDM-1 IC50
Outline: as §1

[2] = test system: Klebsiella pneumoniae expressing VIM-1 (IHMA599644); type: cell-based; conditions: for Klebsiella pneumoniae MITC95: VIM-1 strain IHMA599644, with imipenem 1 μg/ml, 95% inhibition of growth; for Klebsiella pneumoniae expressing VIM-1 (IHMA599644) MITC95: with imipenem 1 μg/ml, 95% inhibition of bacterial growth
Outline: (§2)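 Clinical strains grown overnight on blood agar at 35°C, colonies suspended in saline, diluted 1:100 into 1.1×CAMHB. Test compound titrated with imipenem at 1 μg/ml; incubated 22–24 h at 35°C, growth read by absorbance.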

[3] = test system: Serratia marcescens expressing IMP-1 (CL5741); type: cell-based; conditions: for Serratia marcescens MITC95: IMP-1 strain CL5741, with imipenem 1 μg/ml, 95% inhibition of growth; for Serratia marcescens expressing IMP-1 (CL5741) MITC95: with imipenem 1 μg/ml, 95% inhibition of bacterial growth
Outline: as §2

[4] = test system: Escherichia coli expressing NDM-1 (CLB30005, CLB30016); type: cell-based; conditions: with imipenem 1 μg/ml; for Escherichia coli MITC95: NDM-1 strain, 95% inhibition of growth; for Escherichia coli expressing NDM-1 (CLB30016) MITC95: 95% inhibition of bacterial growth
Outline: as §2

VIM-1 = VIM-1 (Pseudomonas aeruginosa (strain ATCC 15692 / DSM 22644 / CIP 104116 / JCM 14847 / LMG 12228 / 1C / PRS 101 / PAO1), UniProt A0A0F7KYQ8); assay: biochemical; conditions: CCF2-FA substrate, 30 pM enzyme, 2 hours at 25° C.
Outline: as §1

[5] = test system: Pseudomonas aeruginosa efflux− (MB9799), IMP-1; type: cell-based; conditions: C, D serine β-lactamase inhibitor closely related to relebactam; for P. aeruginosa expressing IMP-1, efflux − (MB9799) MITC95: concentration restoring susceptibility to imipenem at 2 μg/mL in the presence of a class A
Outline: (§3)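 Microbroth MIC tests in PAO1-background strains with fixed imipenem and/or ceftazidime, usually at the CLSI breakpoint, plus fixed class A/C β-lactamase inhibitor against AmpC. MBL inhibitor titrated; concentration restoring susceptibility recorded and compared as fold difference between efflux+ MB9798 and efflux− MB9799.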

[6] = test system: Pseudomonas aeruginosa efflux+ (MB9798), IMP-1; type: cell-based; set-up: Concentration of metallo-β-lactamase inhibitor which restores susceptibility of efflux + (MB9798) strain to imipenem: unit not given here; conditions: C, D serine β-lactamase inhibitor closely related to relebactam; for P. aeruginosa expressing IMP-1, efflux + (MB9798) MITC95: concentration restoring susceptibility to imipenem at 2 μg/mL in the presence of a class A
Outline: as §3

[7] = ratio MITC95 PA_9798/MITC95 PA_9799
[8] = fluorescence assay, read-out: IMP-1 IC50
[9] = fluorescence assay, read-out: VIM-1 IC50

Chain of NDM-1 (C7C422 whole entry, looked up, species assumed): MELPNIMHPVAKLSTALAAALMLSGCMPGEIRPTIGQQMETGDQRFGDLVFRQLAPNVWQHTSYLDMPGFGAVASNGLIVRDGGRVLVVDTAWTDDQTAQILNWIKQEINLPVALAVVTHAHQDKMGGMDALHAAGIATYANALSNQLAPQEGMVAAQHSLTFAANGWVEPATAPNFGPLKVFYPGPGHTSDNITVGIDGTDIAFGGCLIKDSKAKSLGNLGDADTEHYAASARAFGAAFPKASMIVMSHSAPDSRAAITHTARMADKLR
Chain of IMP-1 (P52699 whole entry, looked up, species assumed): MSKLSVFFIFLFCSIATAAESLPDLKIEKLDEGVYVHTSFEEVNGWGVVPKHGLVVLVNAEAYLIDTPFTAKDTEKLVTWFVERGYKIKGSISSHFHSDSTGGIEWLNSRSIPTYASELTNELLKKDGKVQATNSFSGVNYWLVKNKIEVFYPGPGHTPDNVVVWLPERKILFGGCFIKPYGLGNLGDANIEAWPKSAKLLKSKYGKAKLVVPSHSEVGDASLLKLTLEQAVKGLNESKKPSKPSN

Row | Structure (SMILES) | Efflux ratio [1, 7] | pIC50 (IMP-1; [8]) | pIC50 (NDM-1) | Klebsiella pneumoniae MITC95 [2] [µM] | Serratia marcescens MITC95 [3] [µM] | Escherichia coli MITC95 [4] [µM] | pIC50 (VIM-1; VIM-1 IC50, fluorescence assay) | P. aeruginosa expressing IMP-1, efflux − (MB9799) MITC95 [5] [µM] | P. aeruginosa expressing IMP-1, efflux + (MB9798) MITC95 [6] [µM] | Efflux ratio ([1]; fold difference between efflux+ (MB9798) and efflux− (MB9799) strains, imipenem at 2 μg/mL, dihydrochloride) | pIC50 (IMP-1; fluorescence assay, dihydrochloride, read-out: IMP-1 IC50) | pIC50 (NDM-1; dihydrochloride) | Escherichia coli MITC95 ([4]; dihydrochloride) [µM] | Concentration of metallo-β-lactamase inhibitor which restores susceptibility of efflux − (MB9799) strain to imipenem ([5]; efflux− MB9799, imipenem at 2 μg/mL, in the presence of a class A, dihydrochloride) | Concentration of metallo-β-lactamase inhibitor which restores susceptibility of efflux + (MB9798) strain to imipenem ([6]; efflux+ MB9798, imipenem at 2 μg/mL, in the presence of a class A) | Klebsiella pneumoniae expressing VIM-1 (IHMA599644) MITC95 [2] [µM] | Serratia marcescens expressing IMP-1 (CL5741) MITC95 [3] [µM] | Escherichia coli expressing NDM-1 (CLB30016) MITC95 [4] [µM] | pIC50 (VIM-1; [9]) | pIC50 (IMP-1; IMP-1 IC50, fluorescence assay)
1 | NCCNS(=O)(=O)c1ccc(-c2cccc(C(=O)NCC(O)CN)c2)c(-c2nn[nH]n2)c1S(N)(=O)=O (stereo in doubt) [Example 347, (S)—N-(3-amino-2-hydroxypropyl)-4′-(N-(2-aminoethyl)sulfamoyl)-3′-sulfamoyl-2′-(2H-tetrazol-5-yl)[1,1′-biphenyl]-3-carboxamide] | 2.00 | 8.40 | 8.69 | 1.563 | 1.563 | 1.563 | 9.27 | 0.7813 | 1.563 | – | – | – | – | – | – | – | – | – | – | –
2 | NCC1(NS(=O)(=O)c2ccc(-c3ccc(N)nc3)c(-c3nn[nH]n3)c2S(N)(=O)=O)CCNC1 (stereo in doubt) [Example 486, (R)-N1-(3-(aminomethyl)pyrrolidin-3-yl)-4-(6-aminopyridin-3-yl)-3-(2H-tetrazol-5-yl)benzene-1,2-disulfonamide dihydrochloride] | – | – | – | 1.563 | 0.7813 | – | 9.49 | – | – | 2.00 | 9.37 | 9.76 | 0.7813 | 0.7813 | 1.563 | – | – | – | – | –
3 | Nc1nc2cccc(-c3ccc(S(N)(=O)=O)c(S(N)(=O)=O)c3-c3nn[nH]n3)c2[nH]1 [Example 1, 4-(2-amino-3H-benzo[d]imidazol-4-yl)-3-(2H-tetrazol-5-yl)benzene-1,2-disulfonamide] | 0.65 | 9.24 | 10.07 | – | – | – | – | 0.8542 | 0.5573 | – | – | – | – | – | – | 1.448 | 0.8542 | 0.5156 | 9.58 | –
4 | Nc1ccc2cccc(-c3ccc(S(N)(=O)=O)c(S(N)(=O)=O)c3-c3nn[nH]n3)c2n1 [Example 2, 4-(2-aminoquinolin-8-yl)-3-(2H-tetrazol-5-yl)benzene-1,2-disulfonamide] | 1.00 | 9.55 | 9.79 | – | – | – | – | 0.7813 | 0.7813 | – | – | – | – | – | – | 1.563 | 0.7813 | 0.7813 | 9.34 | –
5 | NS(=O)(=O)c1ccc(-c2cccc3cn[nH]c23)c(-c2nn[nH]n2)c1S(N)(=O)=O [Example 3, 4-(1H-indazol-7-yl)-3-(2H-tetrazol-5-yl)benzene-1,2-disulfonamide] | 2.00 | 9.63 | 9.82 | – | – | – | – | 1.563 | 3.125 | – | – | – | – | – | – | 6.25 | 1.563 | 3.125 | 9.59 | –
6 | Nc1nc2c(-c3ccc(S(N)(=O)=O)c(S(N)(=O)=O)c3-c3nn[nH]n3)cccc2o1 [Example 4, 4-(2-aminobenzo[d]oxazol-4-yl)-3-(2H-tetrazol-5-yl)benzene-1,2-disulfonamide] | 1.00 | 9.45 | 9.87 | – | – | – | – | 1.563 | 1.563 | – | – | – | – | – | – | 3.125 | 1.563 | 3.125 | 9.63 | –
7 | Cn1c(N)nc2c(-c3ccc(S(N)(=O)=O)c(S(N)(=O)=O)c3-c3nn[nH]n3)cccc21 [Example 5, 4-(2-amino-1-methyl-1H-benzo[d]imidazol-4-yl)-3-(2H-tetrazol-5-yl)benzene-1,2-disulfonamide] | 2.00 | 9.46 | 9.71 | – | – | – | – | 0.8906 | 1.781 | – | – | – | – | – | – | 1.781 | 0.8906 | 0.25 | 9.84 | –
8 | Cc1ccc(-c2ccc(S(N)(=O)=O)c(S(N)(=O)=O)c2-c2nn[nH]n2)c2nc(N)sc12 [Example 6, 4-(2-amino-7-methylbenzo[d]thiazol-4-yl)-3-(2H-tetrazol-5-yl)benzene-1,2-disulfonamide] | 1.00 | 10.19 | 10.57 | – | – | – | – | 1.563 | 1.563 | – | – | – | – | – | – | 6.25 | 1.563 | 6.25 | 10.04 | –
9 | CNS(=O)(=O)c1ccc(-c2cccc3cn[nH]c23)c(-c2nn[nH]n2)c1S(N)(=O)=O [Example 7, 4-(1H-indazol-7-yl)-N1-methyl-3-(2H-tetrazol-5-yl)benzene-1,2-disulfonamide] | 15.99 | – | 10.00 | – | – | – | – | 1.563 | 25 | – | – | – | – | – | – | 6.25 | 3.125 | 6.25 | 9.96 | 9.67
10 | NS(=O)(=O)c1ccc(-c2cccc3[nH]c(C(=O)O)nc23)c(-c2nn[nH]n2)c1S(N)(=O)=O [Example 8, 4-(3,4-disulfamoyl-2-(2H-tetrazol-5-yl)phenyl)-1H-benzo[d]imidazole-2-carboxylic acid] | 1.00 | 9.44 | 9.91 | – | – | – | – | 1.563 | 1.563 | – | – | – | – | – | – | 6.25 | 3.125 | 1.563 | 9.54 | –
11 | NCCNS(=O)(=O)c1ccc(-c2cccc3cn[nH]c23)c(-c2nn[nH]n2)c1S(N)(=O)=O [Example 9, N^1-(2-aminoethyl)-4-(1H-indazol-7-yl)-3-(2H-tetrazol-5-yl)benzene-1,2-disulfonamide] | 0.50 | 9.77 | 10.07 | – | – | – | – | 0.7813 | 0.3906 | – | – | – | – | – | – | 1.563 | 1.563 | 0.7813 | 9.88 | –
